Key:
[1] = tested on: L-selectin; assay: ELISA assay: inhibition of L-selectin-IgG chimera binding to 2,3 sLex glycolipid; settings: FIG. 4; tested at several concentrations; results expressed as percent of control binding
Method: (§1) An ELISA assay (Foxall et al, The Journal of Cell Biology (1992) 117:895) is preferably used which consists of the following three steps:
(§2) 1. 2,3 sLex glycolipid is transferred into microtitre wells as solutions and then evaporated off. Excess, which remained unattached, is washed off with water. The wells are then blocked with a blocking agent, preferably BSA.
(§3) 2. Preparation of "multivalent" receptor of the Selectin-IgG chimera is carried out by combining the respective chimera with biotin labelled goat F(ab')2 anti-human IgG (Fc specific) and streptavidin-alkaline phosphatase diluted appropriately and incubated. This allows the soluble multivalent receptor complex to form.
(§4) 3. Potential inhibitors such as glyco-amino acids or glycopeptides of structural formula I are allowed to react with the soluble receptor. This solution is then placed in the microtitre wells that are prepared in step 1. The plate is incubated to allow the soluble receptor to bind to its natural ligand. In the presence of a strong inhibitor only a few of the receptors should be free to bind to the microtitre plate coated with the natural ligand.
(§5) The positive control is the signal produced by the soluble receptor when it is allowed to react with the natural ligand in the microtitre wells in the absence of any inhibitor. This is considered 100% binding. The signal produced by the receptor that is previously treated with an inhibitor (recorded as O.D.), is divided by the signal produced by the positive control and multiplied by 100 to calculate the % receptor bound to the well in the presence of the inhibitor. The reciprocal of this is the % inhibition.
(§6) The glyco-amino acids or glycopeptides of structural formula I can be tested for their ability to bind to a selectin receptor and/or block the binding site of the receptor and thereby prevent a natural ligand from binding to the selectin receptor (Foxall et al, The Journal of Cell Biology (1992) 117:895). A generalized procedure for testing the ligands is given below.
(§7) An ELISA assay is preferably used which consisted of the following three steps:
1. 2,3 sLex glycolipid (25 picomol/well) was transferred into microtitre wells as solutions and evaporated off. Excess, which remained unattached, was washed off with water. The wells were blocked with 5% BSA at room temperature for an hour and washed with PBS containing 1 mM calcium.
2. Preparation of "multivalent" receptor of the Selectin-IgG chimera was carried out by combining the respective chimera (1 μg/mL) with biotin labelled goat F(ab')2 anti-human IgG (Fc specific) and streptavidin-alkaline phosphatase diluted 1:1000 in 1% BSA-PBS (1 mM calcium) and incubating at 37° C. for 15 min. This allowed the soluble multivalent receptor complex to form.
3. Potential inhibitors such as glyco-amino acids or glycopeptides of structural formula I were allowed to react with the soluble receptor at 37° C. for 45 min. This test assumes that optimal binding, between the soluble phase receptor complex and the inhibitor (non-natural ligand), would occur within this time frame. This solution was placed in the microtitre wells that were prepared in step 1. The plate was incubated at 37° C. for 45 minutes to allow the soluble receptor to bind to its natural ligand. In the presence of a strong inhibitor only a few receptors would be free to bind to the microtitre plate coated with the natural ligand.
The positive control was the signal produced by the soluble receptor when it was allowed to react with the natural ligand in the microtitre wells in the absence of any inhibitor. This was considered 100% binding. The signal produced by the receptor that was previously treated with an inhibitor (recorded as O.D.), was divided by the signal produced by the positive control and multiplied by 100 to calculate the % receptor bound to the well in the presence of the inhibitor. The reciprocal of this is the % inhibition.

[2] = tested on: P-selectin; assay: ELISA assay: inhibition of P-selectin-IgG chimera binding to 2,3 sLex glycolipid; settings: FIG. 5; tested at several concentrations; results expressed as percent of control binding
Method: as §1, §2, §3, §4, §5, §6, §7
1. 2,3 sLex glycolipid (25 picomol/well) was transferred into microtitre wells as solutions and evaporated off. Excess, which remained unattached, was washed off with water. […]
The positive control was the signal produced by the soluble receptor when it was allowed to react with the natural ligand in the microtitre wells in the absence of any inhibitor. […] The signal produced by the receptor that was previously treated with an inhibitor (recorded as O.D.), was divided by the signal produced by the positive control and multiplied by 100 to calculate the % receptor bound to the well in the presence of the inhibitor. […]

[3] = tested on: lymphocyte binding to high endothelial venules (HEV), L-selectin mediated; assay: Stamper-Woodruff assay (lymphocyte adhesion to HEV of lymph node frozen sections); format: cell-based, female Swiss Webster mice; female Sprague-Dawley rats; settings: FIG. 7, percent of relative binding
Source text: (§8) Lymphocytes are known to circulate from blood to lymphoid tissues via high endothelial venules (HEV) on lymph nodes. L-selectin is expressed on the surface of lymphocytes and is believed to mediate lymphocyte adhesion by binding to the natural ligand on the HEV. The glyco-amino acids or glycopeptides of structural formula I can be tested for their ability to bind to a selectin receptor and/or block the binding site of the receptor and thereby prevent a natural ligand from binding to the selectin receptor. See, for example, Stoolman et al, The Journal of Cell Biology (1983) 96:722. The Stamper-Woodruff assay is well known in the an, and generally consists of the following three steps:
1. Preparation of the lymphocytes:
(a) The lymphocytes are obtained from the mesenteric nodes of female Swiss Webster mice, by gently teasing tissues with phosphate buffered saline (PBS). The cells are obtained by gently squeezing the cells from the tissues. The cells are dispersed and the cell clumps are removed. The single cell suspension is suspended, washed, and kept on ice until use (less than two hours). Cells are counted and prepared at an appropriate concentration.
(b) The superficial and deep cervical lymph nodes of female Sprague-Dawley rats are dissected and prepared in the same way as the mice.
2. Preparation of frozen sections:
Superficial or deep cervical lymph nodes are dissected from the animals, snap frozen, and immediately placed in a cryostat for sectioning. 10-μm sections are prepared and transferred onto glass slides, and air dried.
3. Potential inhibitors are added to lymphocyte suspensions 10-30 minutes before the start of the binding assay, and unless otherwise stated, are present throughout the subsequent binding incubation.
The frozen sections are used in the order in which they are cut. Aliquots of untreated lymphocytes (positive control), suspensions containing fucoidin (negative control) and suspensions containing potential inhibitors are layered on the sections in an arbitrary sequence such that the control and each test substance are represented once in a series.
The binding of the lymphocytes to the HEV is easily distinguishable from binding elsewhere by virtue of the characteristic picture of tightly packed, darkly stained lymphocytes overlaying the histologically distinctive HEV. The number of adherent lymphocytes on each HEV are counted and the average number of adherent cells per HEV (cells bound per HEV) is calculated. The results are expressed as a percent of relative binding, wherein the positive control is considered to be 100% binding.
as §8, with “were” for “can be”, “art,” for “an,”
(a) The lymphocytes were obtained from the mesenteric nodes of female Swiss Webster mice (23-27 g), by gently teasing tissues by phosphate buffered saline (PBS). […] Cells were counted and prepared at 3-4×10^7 cells/ml. […]

[4] = tested on: P-selectin; assay: P-selectin/HL-60 assay; format: cell-based; settings: FIG. 6; HL-60 cells; tested at several concentrations
Source text: The glyco-amino acids or glycopeptides of structural formula I can be tested for their ability to inhibit P-selectin binding to its native ligand. A generalized procedure for testing the ligands is given below. A P-selectin/HL-60 assay is preferably used which consists of the following steps:
1. HL-60 cells are harvested and pelleted by centrifugation. The cells are washed, counted and the volume adjusted appropriately.
2. PVC microtiter plate is blocked with a blocking agent, and washed with TBS-BSA.
3. P-selectin is diluted appropriately in BSA-TBS Ca containing goat F(ab')2 anti-human IgG (Fc spec) and streptavidin-alkaline phosphatase. Positive controls have DMF added to equal the highest concentration of DMF in the sample compounds.
4. Ligands are incubated at room temperature with brisk rotation. […]
Para-nitrophenylphosphonate is added to the plate. […] Aliqouts from each well is transferred to a polystyrene microtiter plate and O.D. read at 405 nm. […] The signal produced by the receptor that is previously treated with an inhibitor (recorded as O.D.), is divided by the signal produced by the positive control and multiplied by 100 to calculate the % receptor bound to the well in the presence of the inhibitor. […]
1. […] The cells were washed three times with TBS without Ca, counted and the volume adjusted to 1.9×10^6 /ml in 1% BSA-TBS Ca just prior to use. […]

| SMILES | inhibition of the binding of sLe^x to L-selectin [1] | inhibition of the binding of sLe^x to P-selectin [2] | inhibitory effects in the Stamper-Woodruff assay (cell adhesion) [3] | inhibition of the binding of sLe^x to P-selectin in the HL-60 assay [4] |
| --- | --- | --- | --- | --- |
| C[C@@H]1O[C@@H](CC(=O)N2CCC[C@H]2C(=O)N[C@H](C(=O)O)c2ccccc2)[C@@H](O)[C@H](O)[C@@H]1O [#5, N-[(1-deoxy-α-L-fucopyranosyl)acetyl]-L-proline-L-phenylglycine] | inhibit the binding of sLe^x to L-selectin | inhibit the binding of sLe^x to P-selectin | inhibitory effects |  |
| C[C@@H]1O[C@@H](CC(=O)N2CCC[C@H]2C(=O)N[C@@H](Cc2ccccc2)C(=O)O)[C@@H](O)[C@H](O)[C@@H]1O [#1, N-[(1-deoxy-α-L-fucopyranosyl)acetyl]-L-proline-L-phenylalanine] | inhibit the binding of sLe^x to L-selectin | inhibit the binding of sLe^x to P-selectin | inhibitory effects | inhibit the binding of sLe^x to P-selectin |
| C[C@H](NC(=O)C[C@@H]1O[C@@H](C)[C@@H](O)[C@@H](O)[C@@H]1O)C(=O)N1CCC[C@H]1C(=O)N[C@@H](Cc1ccccc1)C(=O)O [#2, N-[(1-deoxy-α-L-fucopyranosyl)acetyl]-L-alanine-L-proline-L-phenylalanine] | inhibit the binding of sLe^x to L-selectin |  | inhibitory effects | inhibit the binding of sLe^x to P-selectin |
| CC1OC(CCCC(=O)NC(Cc2ccccc2)C(=O)O)C(O)C(O)C1O [#6, N-[4-(1-deoxy-α-L-fucopyranosyl)n-butanoyl]-L-phenylalanine] | inhibit the binding of sLe^x to L-selectin |  |  |  |
| C[C@@H]1O[C@@H](CC(=O)N[C@@H](CCCCNC(=O)OC(C)(C)C)C(=O)O)[C@@H](O)[C@H](O)[C@@H]1O [#3, N-ω-t-butoxylcarbonyl-N-α-[(1-deoxy-α-L-fucopyranosyl)acetyl]-L-lysine] | inhibit the binding of sLe^x to L-selectin | inhibit the binding of sLe^x to P-selectin | inhibitory effects |  |
| C[C@@H]1O[C@@H](CCCC(=O)N2CCC[C@H]2C(=O)N[C@@H](Cc2ccccc2)C(=O)O)[C@@H](O)[C@H](O)[C@@H]1O [#4, N-[4-(1-deoxy-α-L-fucopyranosyl)n-butanoyl]-L-proline-L-phenylalanine] | inhibit the binding of sLe^x to L-selectin | inhibit the binding of sLe^x to P-selectin | inhibitory effects |  |

Reference: US5508387A, “Selectin binding glycopeptides” (Glycomed Incorporated, priority 1993, dated 1996)
